# Measured values: US20260027132A1, “FRAGRANCE COMPOSITIONS AND USE THEREOF FOR IMPROVING SLEEP” (TAKASAGO INTERNATIONAL CORPORATION, priority 2018, published 2026)
# Tested on: panelists
# Assay: Sleep study with panelists smelling test material at bedtime, Fitbit sleep data versus blank control
# Assay type: in vivo, human
# Conditions: vs blank control (no fragrance), 0.06 g neat oil on a blotter, smelled at bedtime, jar left open, one week
# Procedure: A series of sleep studies were conducted. Each study runs one week with one additional week for blank control sample (no fragrance). The number of panelists in each study ranged from 9 to 15. Panelists received either a set of control jars or a set of jars with test material (0.06 g neat oil on a blotter). The second week the order was reversed such that at the end of each study, each panelist had received both treatments.
# Each night, when ready to go to sleep, panelists were instructed to open one of the jars, hold it under their nose, and smell the fragrance while counting slowly to 20, then leave the jar open on the night table while sleeping. Fitbit sleep data were collected at the end of each session of each study and analyzed by ANOVA.
SMILES,Total light sleep minutes % Increase [%],Total minutes asleep % Increase [%],Total deep sleep minutes % Increase [%],Sleep efficiency % Increase [%],other results
"CC(C)=CCC/C(C)=C\CO [Nerol, nerol]",4,4,,,
"C=CC(C)CCCC(C)(C)O (stereo not shown) [Dihydromyrcenol, dihydromyrcenol]",,13,37,,Total REM sleep minutes % Increase: 10%
"CC1CCCCCCCCCCCCC(=O)C1 [L-muscone, 3-methylcyclopentadecan-1-one]",,,11,,
"CC(C=O)Cc1ccc(C(C)(C)C)cc1 (stereo not shown) [Lilial, lilial]",5,4,,1,Total REM sleep minutes % Increase: 6%
CC(C)[C@@H]1CC[C@@H](C)C[C@H]1O [L-menthol],3,,,1,
CC(=O)/C=C/C1C(C)=CCCC1(C)C (stereo not drawn) [alpha-ionone],,5,14,,
"CC1(C)CCC[C@]2(C)[C@H]3CCO[C@]3(C)CC[C@@H]12 [Ambroxan, (3aR,5aS,9aS,9bR)-3a,6,6,9a-tetramethyl-2,4,5,5a,7,8,9,9b-octahydro-1H-benzo[e][1]benzofuran]",,,,,Total minutes awake % Decrease: 8%
"COc1cc(C=O)ccc1O [Vanillin, vanillin]",,,,,Total REM sleep minutes % Increase: 7%
"CC(C)=CCC/C(C)=C/CO [Geraniol, geraniol]",8,10,29,,
"C=CC(C)(CCC=C(C)C)OC(C)=O (stereo not shown) [Linalyl acetate, linalyl acetate]",,,16,2,Total REM sleep minutes % Increase: 19%; Total minutes awake % Decrease: 10.6%
CC(=O)/C=C/C1=C(C)CCCC1(C)C [beta-ionone],3,,,2,Total minutes awake % Decrease: 12%
"O=C1CCCCCCCCCCCC(=O)OCCO1 [Musk T, 1,4-dioxacycloheptadecane-5,17-dione]",,,,2,Total minutes awake % Decrease: 13%
"CC(C=O)Cc1ccc(C(C)C)cc1 (stereo not shown) [Cyclamen aldehyde, cyclamen aldehyde]",,4,7.4,1.2,Total minutes awake % Decrease: 7%
CC/C=C\CCOC(=O)c1ccccc1O [cis-3-hexenyl salicylate],,,8,,
"C=CC(C)(O)CCC=C(C)C (stereo not shown) [Linalool, linalool]",5,,,,
"O=C1CCCC=CCCCCCCCCCC1 [Ambretone, 5-cyclohexadecen-1-one]",4,,,,
CC(=O)/C(C)=C/C1C(C)=CCCC1(C)C (stereo not shown) [gamma-methyl ionone],12,,,,
"CC(C)C(=O)OCCOc1ccccc1 [Phenoxyethyl isobutyrate, phenoxyethyl isobutyrate]",8,,,,
